Assay results published in patent publication US4882359A, “Azacycloalkane derivatives, absorption promoters containing the derivatives as the effective ingredient and external preparations containing the absorption promoters” (priority 1986, dated 1989).

Key:
glucose level in blood [1] = test: Rectal absorption of insulin from suppository: glucose level in blood of rabbits; assay type: in vivo, male rabbits; conditions: for Changes of glucose level to the initial, 0.5 hr / Changes of glucose level to the initial, 1 hr / Changes of glucose level to the initial, 3 hrs: insulin suppository 0.3 g/kg rectal, 3% promoter where used
Description: There were prepared the following suppositories for use in normal, control and test groups, respectively, each group consisting of five male rabbits weighing 2.5 to 3.5 kg each.
The three suppositories were into the rectums of the rabbit groups in an amount of 0.3 g suppository/kg, respectively. Thereafter, blood was collected from the rabbits through their ear vein three times with the lapse of time to measure the three collected blood samples for glucose level in blood by a glucose oxidase method. […] The results are indicated in terms of a change in glucose level in blood with respect to the glucose level in blood prior to the administration of the suppositories.

[2] = Skin penetration of pindolol from test solution, diffusion cell method; assay type: in vitro ADME, female hairless mice; conditions: for Activity (pindolol permeation): test solution, relative to Control (Vehicle) = 1.0
[3] = Percutaneous absorption of pindolol in rats, serum concentration by HPLC; assay type: in vivo, Wistar-strain male rats; conditions: for Activity (serum concentration of pindolol): relative to Control (Vehicle) = 1.0 of the same series in Table 5
Description: There were provided groups each consisting of four Wistar-strain male rats each weighing 200 to 250 g and having their dorsal skin hair shorn with an electric shaver.
Each of the test solutions (pindolol-containing preparations) was applied to the shorn dorsal skin of test rats of one of the groups in an amount of 150 μl/2.5×2.5 cm^2 and then sealed up. Three hours after the application of the test solution, the blood of the test rats was collected and measured for serum concentration of pindolol by HPLC.
For comparison, the above procedure was followed except that there was used a control solution which was the same as said test solution except for non-use of any compounds of this invention, and also followed using a comparative test solution which was the same as the test solution except for the substitution of a comparative compound for the compound of this invention.

[4] = Skin penetration of 5-FU from test solution, diffusion cell method; assay type: in vitro ADME, female hairless mice; conditions: for Cumulative amount of 5-FU permeated, 24 hrs later / Cumulative amount of 5-FU permeated, 48 hrs later: 3.0 wt.% test compound, 5-FU 1.8 wt.% in ethanol/water; for Activity (5-FU permeation): relative to Control (Vehicle) = 1.0
[5] = for Activity (phenol red permeation): relative to Control (Vehicle) = 1.0
Description: There were investigated the effects of the compound of this invention on the percutneous penetration of phenol red which is difficult to be penetrated using the dorsal skin of female hairless mice (each 9 weeks old) by a diffusion cell method which comprised adding 0.5 ml of a sodium chloride injection containing 2 mM of phenol red to the donor side and measuring the amount of phenol red permeated into the receptor layer by high-pace optimal densitometric meter (559 nm).

in vivo = conditions: rat
[6] = tested on: dorsal skin of Japanese-native rabbits; test: Primary skin irritation test (Draize's method); assay type: in vivo; parameters: key to Average irritation score, 24 hours / Average irritation score, 48 hours / Average irritation score, 72 hours: Draize points: 0-2 mild, 2-6 moderate, 6-8 severe irritation; conditions: for Average irritation score, 24 hours: 3% solution in polyethylene glycol 300, 24 hours after removal of plaster; for Average irritation score, 48 hours: 3% solution in polyethylene glycol 300, 48 hours after removal of plaster; for Average irritation score, 72 hours: 3% solution in polyethylene glycol 300, 72 hours after removal of plaster; for Overall evaluation (skin irritation): graded from irritation scores at 24, 48 and 72 hours
Description: As one of tests on the compounds of this invention for their topical toxicity, a primary skin irritation test was made on skins using rabbits as the subjects. More particularly, an adhesive plaster for use in batch tests, to which 100 μl of a 3% test solution of each of the compounds of Examples 12, 37, 57 and 73 of this invention in 100 ml of polyethylene glycol 300 had dropwise been applied, was applied to the hair-shorn dorsal skin of three Japanese-native rabbits weighing 2.5 to 3.0 kg each and then sealed up on the dorsal skin for 24 hours. The rabbits were evaluated three times for their dorsal skin irritative reaction 24, 48 and 72 hours after removal of the plaster by using a method in accordance with the Draize's method.
The results are as shown in Table 18 in which the overall evaluation is represented by the following equation. [formula] and is graded into mild irritation (0-2 points), moderate irritation (2-6 points) and severe irritation (6-8 points).

glucose level in blood [7] = test: Percutaneous absorption of glibenclamide: glucose level in blood of glucose-loaded rats; assay type: in vivo, Wistar-strain male rats; conditions: for Glucose level: glibenclamide 0.6 wt.% solution on dorsal skin, two hours after s.c. 20% glucose; for Inhibition rate: glucose level, relative to control group A and normal group
Description: There were prepared control and test solutions having the following respective formulations (Table 8): […]
In the tests, there were used groups each consisting of four Wistar-strain male rats which weighed about 200 to 250 g and abstained from food for 24 hours.
Each of the control solutions A and B and the test solution indicated in the above Table 8 was applied to the dorsal skins, shorn by an electric clipper or shaver, of the rats of one group in an amount of 175 μl/2.5×2.5 cm^2 and then sealed up. Three hours after sealing up, 1.5 ml of 20% glucose was subcutaneously injected into said rats. Two hours after the glucose injection, the blood of the rats was collected and measured for glucose level in blood.
For comparison, the above procedure was followed except that azone was substituted for the compound of Example 12 in the test solution.
For further comparison, the blood of rats of one group which had been subjected only to 24 hours' abstinence from food (this group being hereinafter referred to as "normal group"), was measured for glucose level in blood. The rat groups to which the control solution A, the control solution B and the test solution were applied, are hereinafter referred to as "control group A", "control group B" and "test group", respectively.

## Insulin: Insulin (Bovine, International Unit); control group (only insulin used)
Glucose level in blood [1]; compared with the normal group
  effects on glucose level in blood (in words): exhibited no effects on glucose level in blood
Glucose level in blood [1]
  Changes of glucose level to the initial, 0.5 hr: -1 mg/dL
  Changes of glucose level to the initial, 1 hr: +3 mg/dl
  Changes of glucose level to the initial, 3 hrs: +1 mg/dl

## CCN1CCCC1=O [1-ethyl-2-pyrolidone, 1-ethyl-2-pyrrolidone]
[2]
  Cumulative amount of pindolol permeated, 24 hrs later: 1.3 ± 0.1 µM
  Cumulative amount of pindolol permeated, 48 hrs later: 2.7 ± 0.2 µM
  Activity (pindolol permeation): 0.7
[3]
  Activity (serum concentration of pindolol): 2.8
[4]
  Cumulative amount of 5-FU permeated, 24 hrs later: 96 ± 15 µM
  Cumulative amount of 5-FU permeated, 48 hrs later: 178 ± 9 µM
  Activity (5-FU permeation): 0.9

## C[S+](C)[O-] [DMSO, dimethylsulfoxide, reference compound]
[3]; rat, in vivo, 180 min
  Serum concentration of pindolol: 12.0 ± 4.2 ng/mL
[3]
  Activity (serum concentration of pindolol): 1.0

## CCCCCCOCCCCCN1CCCCCC1=O [Example 76]
[3]
  Activity (serum concentration of pindolol): 8.3

## CCCCCCCCCCSCCCN1CCCC1=O [Example 16]
[3]
  Activity (serum concentration of pindolol): 32.0

## CCCCCCCOCCCCCN1CCCC1=O [Example 66]
[3]
  Activity (serum concentration of pindolol): 30.2

## CCCCCCCSCCCCCN1CCCCCC1=O [Example 43]
[3]
  Activity (serum concentration of pindolol): 16.2

## CCCCCCCCOCCCN1CCCCCC1=O [Example 4, 1-[3-(n-octyloxy)propyl] azacycloheptane-2-one]
[3]
  Activity (serum concentration of pindolol): 31.5

## CCCCCCCCCCOCCN1CCCC1=O [Example 57]
[5]
  Activity (phenol red permeation): 65.5
In vivo; po
  LD50 at 168 h: > 5000 mg/kg
In vivo; sc
  LD50 at 168 h: > 5000 mg/kg
[3]
  Activity (serum concentration of pindolol): 33.0
[6]
  Average irritation score, 24 hours: 0.0 ± 0.0
  Average irritation score, 48 hours: 0.3 ± 0.3
  Average irritation score, 72 hours: 0.3 ± 0.3
  Overall evaluation (skin irritation): Mild (mild irritation (0-2 points))

## CN1CCCC1=O [1-methyl-2-pyrolidone, 1-methyl-2-pyrrolidone, reference compound]
In vivo; po
  LD50 at 168 h: 1000 to 2000 mg/kg
In vivo; sc
  LD50 at 168 h: 2000 to 5000 mg/kg
[3]
  Activity (serum concentration of pindolol): 1.9
[4]
  Cumulative amount of 5-FU permeated, 24 hrs later: 83 ± 15 µM
  Cumulative amount of 5-FU permeated, 48 hrs later: 192 ± 20 µM
  Activity (5-FU permeation): 0.9

## CCCCCCCCSCCCCN1CCCCCC1=O [Example 38]
[3]
  Activity (serum concentration of pindolol): 12.0

## CCCCCCCCOCCCCN1CCCCCC1=O [Example 74]
[3]
  Activity (serum concentration of pindolol): 28.9

## CCCCCCCOCCCCN1CCCCCC1=O [Example 73]
[5]
  Activity (phenol red permeation): 56.3
In vivo; po
  LD50 at 168 h: > 5000 mg/kg
In vivo; sc
  LD50 at 168 h: > 5000 mg/kg
[3]
  Activity (serum concentration of pindolol): 34.1
[6]
  Average irritation score, 24 hours: 0.3 ± 0.3
  Average irritation score, 48 hours: 0.3 ± 0.3
  Average irritation score, 72 hours: 0.5 ± 0.5
  Overall evaluation (skin irritation): Mild (mild irritation (0-2 points))

## CCCCCCCCCCCCN1CCCCCC1=O [Azone, 1-n-dodecylazacycloheptane-2-one, reference compound]
Glucose level in blood [1]
  Changes of glucose level to the initial, 0.5 hr: -4 mg/dL
  Changes of glucose level to the initial, 1 hr: +2 mg/dl
  Changes of glucose level to the initial, 3 hrs: +1 mg/dl
[5]; 3.0 wt.% test compound, phenol red, 24 hrs
  Cumulative amount of phenol red permeated, 24 hrs later: 8.4 ± 7.6 µM
[5]; 3.0 wt.% test compound, phenol red, 48 hrs
  Cumulative amount of phenol red permeated, 48 hrs later: 14.5 ± 0.7 µM
[5]
  Activity (phenol red permeation): 24.2
In vivo; po
  LD50 at 168 h: > 5000 mg/kg
In vivo; sc
  LD50 at 168 h: > 5000 mg/kg
Glucose level in blood [7]
  Glucose level: 133 ± 13 mg/dL
  Inhibition rate: 25.0%
[6]
  Average irritation score, 24 hours: 3.8 ± 1.3
  Average irritation score, 48 hours: 3.8 ± 1.7
  Average irritation score, 72 hours: 5.5 ± 1.9
  Overall evaluation (skin irritation): Moderate (moderate irritation (2-6 points))
[6]; rabbit, in vivo
  irritating actions on the skins (in words): moderate grade irritating actions

## CCCCSCCCCCCCN1CCCCCC1=O [Example 49]
[3]
  Activity (serum concentration of pindolol): 23.2

## COc1ccc(Cl)cc1C(=O)NCCc1ccc(S(=O)(=O)NC(=O)NC2CCCCC2)cc1 [Glibenclamide]
Glucose level in blood [7]
  Glucose level: 157 ± 7 mg/dL
  Inhibition rate: -3.6%
Glucose level in blood [7]; glibenclamide used alone, compared with control group A
  effects on hypoglycemic activity: not exhibit any effects on hypoglycemic activity

## Pyrrolidone carboxylic acid [Pyrolidone carbonic acid, reference compound]
[2]
  Activity (pindolol permeation): 0.5
[3]
  Activity (serum concentration of pindolol): 2.1

## CCCCCCCCCSCCN1CCCC1=O [Example 1, 1-[2-(n-nonylthio)ethyl] azacyclopentane-2-one]
[3]
  Activity (serum concentration of pindolol): 30.0

## CCCCCCCCSCCCN1CCCCCC1=O [Example 30]
[3]
  Activity (serum concentration of pindolol): 12.7

## CCCCCOCCCCCCN1CCCC1=O [Example 67]
[3]
  Activity (serum concentration of pindolol): 22.8

## CCCSCCCCCCCCN1CCCCCC1=O [Example 50]
[3]
  Activity (serum concentration of pindolol): 6.6

## CCCCCCCSCCCCCN1CCCC1=O [Example 20]
[3]
  Activity (serum concentration of pindolol): 40.6

## CCCCCSCCCCN1CCCCCC1=O [Example 35]
[3]
  Activity (serum concentration of pindolol): 8.8

## CCCCCCOCCCCCCN1CCCCCC1=O [Example 80]
[3]
  Activity (serum concentration of pindolol): 26.1

## CCCCCCCCCSCCCCN1CCCCCC1=O [Example 39]
[3]
  Activity (serum concentration of pindolol): 18.0

## CCCCCCSCCCCCCN1CCCCCC1=O [Example 48]
[3]
  Activity (serum concentration of pindolol): 14.9

## CCCCCCCSCCCN1CCCCCC1=O [Example 29]
[3]
  Activity (serum concentration of pindolol): 14.8

## CCCCCCCCCCOCCCN1CCCCCC1=O [Example 72]
[3]
  Activity (serum concentration of pindolol): 27.2

## CCCCCCSCCCCN1CCCCCC1=O [Example 36]
[3]
  Activity (serum concentration of pindolol): 19.6

## CCCCCSCCCCCCN1CCCCCC1=O [Example 2, 1-[6-(n-pentylthio)hexyl] azacycloheptane-2-one]
[3]
  Activity (serum concentration of pindolol): 12.7

## CCCCCCCSCCCCN1CCCCCC1=O [Example 37]
[5]
  Activity (phenol red permeation): 54.2
In vivo; po
  LD50 at 168 h: > 5000 mg/kg
In vivo; sc
  LD50 at 168 h: > 5000 mg/kg
[3]
  Activity (serum concentration of pindolol): 16.2
[6]
  Average irritation score, 24 hours: 0.6 ± 2
  Average irritation score, 48 hours: 0.5 ± 0.5
  Average irritation score, 72 hours: 0.5 ± 0.5
  Overall evaluation (skin irritation): Mild (mild irritation (0-2 points))

## CCCCCCCCCSCCCN1CCCCCC1=O [Example 31]
[3]
  Activity (serum concentration of pindolol): 27.5
